The source of these data is ChEMBL document CHEMBL5338717, “Discovery of novel PDE4 inhibitors targeting the M-pocket from natural mangostanin with improved safety for the treatment of Inflammatory Bowel Diseases” (Eur J Med Chem, 2022).

The target in data set [1] is High affinity 3',5'-cyclic-AMP phosphodiesterase 7A (Homo sapiens, UniProt Q13946). In words: Inhibition of recombinant PDE7A1 (130 to 482 residues) (unknown origin) expressed in Escherichia coli BL21 using [3H]cAMP as substrate incubated for 15 mins by liquid scintillation method.
Data set [2] concerns Mus musculus. In words: Anti-inflammatory bowel disease activity in DSS-induced inflammatory bowel disease C57BL/6 mouse model assessed as decrease in mucosal ulceration in colon at 5 mg/kg, iv BID and measured after 8 days by Haematoxylin and eosin staining based microscopy. It counts as functional, organism-based. As to conditions: time 8.0 day.
Data set [3] has as its system Mus musculus. In words: Anti-inflammatory bowel disease activity in DSS-induced inflammatory bowel disease C57BL/6 mouse model assessed as decrease in epithelial damage in colon at 5 mg/kg, iv BID and measured after 8 days by Haematoxylin and eosin staining based microscopy. It counts as functional, organism-based. As to conditions: time 8.0 day.
The subject of data set [4] is Mus musculus. The experiment in a line: Anti-inflammatory bowel disease activity in DSS-induced inflammatory bowel disease C57BL/6 mouse assessed as decrease in neutrophil infiltration in colon at 5 mg/kg, iv BID and measured after 8 days by Haematoxylin and eosin staining based microscopy. The data set is classed as functional, organism-based. As to conditions: time 8.0 day.

A short description of data set [5]: Metabolic stability in rat liver microsomes assessed as half life. It counts as ADME, Microsome.
The subject of data set [6] is Mus musculus. In words: Anti-inflammatory bowel disease activity in DSS-induced inflammatory bowel disease C57BL/6 mouse model assessed as decrease in body weight loss by measuring disease activity index score at 5 mg/kg, iv BID and measured upto 8 days. As to conditions: time <= 8.0 day. It counts as functional, organism-based.
Data set [7] is described as follows: Selectivity index, ratio of IC50 for inhibition of PDE7A1 (130 to 482 residues) (unknown origin) expressed in Escherichia coli BL21 to IC50 for inhibition of recombinant PDE4D2 (86 to 413 residues) (unknown origin) expressed in Escherichia coli BL21.
Data set [8] is described as follows: Elimination half life in Sprague-Dawley rat at 2.5 mg/kg, iv. The data set is classed as ADME, organism-based. As to conditions: in vivo, read-out: beta t1/2 (converted).
For data set [9], the target named is cGMP-specific 3',5'-cyclic phosphodiesterase (Homo sapiens, UniProt O76074). The experiment in a line: Inhibition of recombinant PDE5A1 (535 to 860 residues) (unknown origin) expressed in Escherichia coli BL21 using [3H]cGMP as substrate incubated for 15 mins by liquid scintillation method.
A short description of data set [10]: MRT(0 to 24 hrs) in Sprague-Dawley rat at 2.5 mg/kg, iv. The data set is classed as ADME, organism-based. As to conditions: in vivo.
Data set [11] is described as follows: Selectivity index, ratio of IC50 for inhibition of recombinant PDE3A (679 to 1087 residues) (unknown origin) expressed in Escherichia coli BL21 to IC50 for inhibition of recombinant PDE4D2 (86 to 413 residues) (unknown origin) expressed in Escherichia coli BL21.
Data set [12] can be described thus: AUC(0 to 24 hrs) in Sprague-Dawley rat at 2.5 mg/kg, iv. It counts as ADME, organism-based. More on the design: dose 2.5 mg/kg, route iv. As to conditions: in vivo.
Data set [13] in a line: Selectivity index, ratio of IC50 for inhibition of recombinant PDE10A2 (449 to 770 residues) (unknown origin) expressed in Escherichia coli BL21 to IC50 for inhibition of recombinant PDE4D2 (86 to 413 residues) (unknown origin) expressed in Escherichia coli BL21.
Data set [14] addresses Dual specificity calcium/calmodulin-dependent 3',5'-cyclic nucleotide phosphodiesterase 1C (Homo sapiens, UniProt Q14123). In words: Inhibition of recombinant PDE1C (147 to 531 residues) (unknown origin) expressed in Escherichia coli BL21 using [3H]cGMP as substrate incubated for 15 mins by liquid scintillation method.
In the next data set the target is T1, Cytochrome P450 1A2 (Homo sapiens, UniProt P05177).
T1 sequence (P05177 whole entry): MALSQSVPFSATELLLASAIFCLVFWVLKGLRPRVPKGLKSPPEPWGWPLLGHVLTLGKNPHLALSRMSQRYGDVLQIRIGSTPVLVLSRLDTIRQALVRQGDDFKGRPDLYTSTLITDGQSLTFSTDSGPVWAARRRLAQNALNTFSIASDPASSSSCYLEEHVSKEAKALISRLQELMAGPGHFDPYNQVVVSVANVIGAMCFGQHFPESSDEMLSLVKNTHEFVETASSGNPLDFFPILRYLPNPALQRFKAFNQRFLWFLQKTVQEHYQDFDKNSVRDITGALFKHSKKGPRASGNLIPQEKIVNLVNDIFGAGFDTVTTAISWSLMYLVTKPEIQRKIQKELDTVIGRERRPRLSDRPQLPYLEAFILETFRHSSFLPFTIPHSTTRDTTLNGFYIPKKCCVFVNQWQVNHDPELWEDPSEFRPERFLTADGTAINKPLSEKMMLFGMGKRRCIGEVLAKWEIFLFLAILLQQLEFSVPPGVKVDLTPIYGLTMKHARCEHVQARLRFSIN
In words: Inhibition of human CYP1A2 in human hepatocytes. The data set is classed as ADME, cell-based, Hepatocyte.

For data set [15], the system named is Mus musculus. The experiment in a line: Anti-inflammatory bowel disease activity in DSS-induced inflammatory bowel disease C57BL/6 mouse model assessed as decrease in rectal bleeding by measuring disease activity index score at 5 mg/kg, iv BID and measured upto 8 days by Haem-occult test. The data set is classed as functional, organism-based. As to conditions: time <= 8.0 day.

Data set [16] has as its system Mus musculus. In words: Anti-inflammatory bowel disease activity in DSS-induced inflammatory bowel disease C57BL/6 mouse model assessed as decrease in loss of crypt architecture in colon at 5 mg/kg, iv BID and measured after 8 days by Haematoxylin and eosin staining based microscopy. The data set is classed as functional, organism-based. As to conditions: time 8.0 day.

The test system of data set [17] is Mus musculus. In words: Anti-inflammatory bowel disease activity in DSS-induced inflammatory bowel disease C57BL/6 mouse model assessed as decrease in TNF-alpha mRNA expression level in colon at 5 mg/kg, iv BID and measured after 8 days by real-time PCR analysis. As to conditions: time 8.0 day. The data set is classed as functional, organism-based.
Data set [18] concerns Mus musculus. In words: Anti-inflammatory bowel disease activity in DSS-induced inflammatory bowel disease C57BL/6 mouse model assessed as decrease in IFN-gamma mRNA expression level in colon at 5 mg/kg, iv BID and measured after 8 days by real-time PCR analysis. It counts as functional, organism-based. As to conditions: time 8.0 day. (In general: Real-time PCR tracks product formation cycle by cycle.)

Data set [19] deals with 3',5'-cyclic-AMP phosphodiesterase 4D (Homo sapiens, UniProt Q08499). The experiment in a line: Inhibition of recombinant PDE4D2 (86 to 413 residues) (unknown origin) expressed in Escherichia coli BL21 using [3H]cAMP as substrate incubated for 15 mins by liquid scintillation method.
The test system of data set [20] is Mus musculus. In words: Anti-inflammatory bowel disease activity in DSS-induced inflammatory bowel disease C57BL/6 mouse model assessed as increase in body weight at 5 mg/kg, iv BID and measured after 8 days […]. The data set is classed as functional, organism-based. As to conditions: time 8.0 day.
Data set [21] has as its target cGMP-dependent 3',5'-cyclic phosphodiesterase (Homo sapiens, UniProt O00408). In words: Inhibition of recombinant PDE2A (580 to 919 residues) (unknown origin) expressed in Escherichia coli BL21 using [3H]cGMP as substrate incubated for 15 mins by liquid scintillation method.
A short description of data set [22]: Selectivity index, ratio of IC50 for inhibition of recombinant PDE1C (147 to 531 residues) (unknown origin) expressed in Escherichia coli BL21 to IC50 for inhibition of recombinant PDE4D2 (86 to 413 residues) (unknown origin) expressed in Escherichia coli BL21.
The target in the next data set is Cytochrome P450 2C9 (Homo sapiens, UniProt P11712). In words: Inhibition of human CYP2C9 in human hepatocytes. It counts as ADME, cell-based, Hepatocyte.

SMILES strings stand for the structures. Active and inactive are the calls of the source. No cut-off for these calls is given here.

Dual specificity calcium/calmodulin-dependent 3',5'-cyclic nucleotide phosphodiesterase 1C, sequence (Q14123 whole entry, the tested form may be a part): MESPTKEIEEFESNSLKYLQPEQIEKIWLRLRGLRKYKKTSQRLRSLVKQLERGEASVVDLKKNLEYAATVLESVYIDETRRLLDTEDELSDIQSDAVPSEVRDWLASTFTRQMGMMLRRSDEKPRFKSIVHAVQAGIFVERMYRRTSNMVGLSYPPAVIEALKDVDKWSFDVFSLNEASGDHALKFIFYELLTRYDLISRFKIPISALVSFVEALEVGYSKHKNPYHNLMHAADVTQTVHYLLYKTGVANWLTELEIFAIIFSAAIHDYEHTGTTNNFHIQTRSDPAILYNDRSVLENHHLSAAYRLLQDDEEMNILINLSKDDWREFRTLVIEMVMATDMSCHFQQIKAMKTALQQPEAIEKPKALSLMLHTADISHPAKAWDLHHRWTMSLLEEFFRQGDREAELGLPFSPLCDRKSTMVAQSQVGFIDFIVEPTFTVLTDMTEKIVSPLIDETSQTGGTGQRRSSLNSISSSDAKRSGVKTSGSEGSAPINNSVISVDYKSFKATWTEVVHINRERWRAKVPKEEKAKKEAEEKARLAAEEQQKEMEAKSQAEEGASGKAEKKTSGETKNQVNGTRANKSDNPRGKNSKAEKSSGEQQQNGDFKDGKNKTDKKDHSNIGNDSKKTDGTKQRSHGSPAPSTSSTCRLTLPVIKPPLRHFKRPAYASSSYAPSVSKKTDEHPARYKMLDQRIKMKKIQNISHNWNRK
3',5'-cyclic-AMP phosphodiesterase 4D, sequence (Q08499 whole entry, the tested form may be a part): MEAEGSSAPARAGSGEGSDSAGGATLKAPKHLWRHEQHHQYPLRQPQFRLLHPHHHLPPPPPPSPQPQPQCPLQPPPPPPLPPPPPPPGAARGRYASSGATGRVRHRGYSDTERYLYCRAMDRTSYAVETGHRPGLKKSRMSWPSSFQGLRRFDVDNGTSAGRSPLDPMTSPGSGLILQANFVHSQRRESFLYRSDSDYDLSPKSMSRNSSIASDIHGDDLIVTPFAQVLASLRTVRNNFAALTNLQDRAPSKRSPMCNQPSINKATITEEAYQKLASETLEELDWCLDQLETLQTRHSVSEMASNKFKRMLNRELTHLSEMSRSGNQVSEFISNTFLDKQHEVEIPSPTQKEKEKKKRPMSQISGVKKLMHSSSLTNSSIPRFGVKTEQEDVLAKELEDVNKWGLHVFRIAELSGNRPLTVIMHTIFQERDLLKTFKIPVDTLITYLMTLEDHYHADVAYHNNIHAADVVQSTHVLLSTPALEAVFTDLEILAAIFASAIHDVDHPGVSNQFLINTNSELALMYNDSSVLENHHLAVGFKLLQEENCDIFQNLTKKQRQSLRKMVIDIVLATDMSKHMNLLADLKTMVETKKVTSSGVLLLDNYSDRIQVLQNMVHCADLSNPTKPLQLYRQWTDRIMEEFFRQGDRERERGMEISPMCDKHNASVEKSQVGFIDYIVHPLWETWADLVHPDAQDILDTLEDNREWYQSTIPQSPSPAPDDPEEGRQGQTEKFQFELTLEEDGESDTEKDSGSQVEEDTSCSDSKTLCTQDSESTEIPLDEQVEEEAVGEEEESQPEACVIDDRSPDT
High affinity 3',5'-cyclic-AMP phosphodiesterase 7A, sequence (Q13946 whole entry, the tested form may be a part): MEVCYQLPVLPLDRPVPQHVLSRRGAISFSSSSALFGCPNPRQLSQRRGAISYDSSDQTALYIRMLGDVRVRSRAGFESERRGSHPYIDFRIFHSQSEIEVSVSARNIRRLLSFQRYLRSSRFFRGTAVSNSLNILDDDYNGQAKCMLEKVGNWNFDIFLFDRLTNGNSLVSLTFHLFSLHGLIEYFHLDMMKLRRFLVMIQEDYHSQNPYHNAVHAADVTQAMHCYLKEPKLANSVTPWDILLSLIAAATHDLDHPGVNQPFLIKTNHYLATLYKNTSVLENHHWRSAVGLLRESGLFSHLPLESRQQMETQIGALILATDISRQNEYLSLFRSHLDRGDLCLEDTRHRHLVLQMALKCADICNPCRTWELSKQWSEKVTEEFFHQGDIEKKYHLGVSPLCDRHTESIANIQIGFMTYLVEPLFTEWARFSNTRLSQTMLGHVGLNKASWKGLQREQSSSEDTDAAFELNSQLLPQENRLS
Cytochrome P450 2C9, sequence (P11712 whole entry): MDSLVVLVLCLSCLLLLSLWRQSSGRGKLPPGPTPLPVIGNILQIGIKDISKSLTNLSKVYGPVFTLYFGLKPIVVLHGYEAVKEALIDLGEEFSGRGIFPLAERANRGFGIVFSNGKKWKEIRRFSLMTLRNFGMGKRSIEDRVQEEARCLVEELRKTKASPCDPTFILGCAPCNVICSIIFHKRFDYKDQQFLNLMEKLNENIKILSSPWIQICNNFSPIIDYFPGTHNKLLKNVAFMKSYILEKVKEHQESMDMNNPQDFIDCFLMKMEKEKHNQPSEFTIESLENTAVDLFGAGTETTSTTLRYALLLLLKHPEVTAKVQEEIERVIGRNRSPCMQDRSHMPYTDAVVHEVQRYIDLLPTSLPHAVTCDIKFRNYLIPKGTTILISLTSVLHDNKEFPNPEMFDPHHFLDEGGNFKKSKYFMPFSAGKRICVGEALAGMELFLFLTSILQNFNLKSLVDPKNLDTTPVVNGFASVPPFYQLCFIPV
cGMP-dependent 3',5'-cyclic phosphodiesterase, sequence (O00408 whole entry, the tested form may be a part): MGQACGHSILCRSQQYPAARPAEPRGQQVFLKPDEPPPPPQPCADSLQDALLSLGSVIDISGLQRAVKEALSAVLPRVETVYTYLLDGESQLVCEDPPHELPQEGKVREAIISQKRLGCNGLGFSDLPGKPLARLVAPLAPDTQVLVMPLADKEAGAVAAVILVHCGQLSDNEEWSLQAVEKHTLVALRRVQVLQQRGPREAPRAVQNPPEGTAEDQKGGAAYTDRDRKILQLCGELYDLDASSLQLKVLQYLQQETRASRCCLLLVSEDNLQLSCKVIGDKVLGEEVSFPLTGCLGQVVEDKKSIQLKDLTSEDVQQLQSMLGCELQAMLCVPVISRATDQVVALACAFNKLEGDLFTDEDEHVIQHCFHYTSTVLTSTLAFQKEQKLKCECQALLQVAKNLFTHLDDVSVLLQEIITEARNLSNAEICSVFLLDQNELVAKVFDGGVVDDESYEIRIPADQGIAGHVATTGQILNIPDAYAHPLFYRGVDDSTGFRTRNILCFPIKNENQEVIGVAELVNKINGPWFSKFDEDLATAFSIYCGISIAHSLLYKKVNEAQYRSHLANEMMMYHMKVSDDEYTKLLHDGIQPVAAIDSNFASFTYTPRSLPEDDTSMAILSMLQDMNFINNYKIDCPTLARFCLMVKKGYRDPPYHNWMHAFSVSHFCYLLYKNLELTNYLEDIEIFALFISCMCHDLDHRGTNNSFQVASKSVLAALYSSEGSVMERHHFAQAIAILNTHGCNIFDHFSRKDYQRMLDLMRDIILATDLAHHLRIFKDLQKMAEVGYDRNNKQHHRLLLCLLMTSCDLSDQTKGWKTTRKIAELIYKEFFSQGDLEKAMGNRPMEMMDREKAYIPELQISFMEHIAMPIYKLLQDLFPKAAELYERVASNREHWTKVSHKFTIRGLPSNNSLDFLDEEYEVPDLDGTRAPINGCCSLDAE

On to `COc1c(OCC2CC2)cc2oc3cc4c(c(OCc5ccncc5)c3c(=O)c2c1CC=C(C)C)C=CC(C)(C)O4`, for which the IC50 in data set [1] is 0.015 µM; in data set [9], 1.24 µM; in data set [14], above 10 µM; at Cytochrome P450 1A2, above 25 µM; in [19] it was 0.0035 µM; in data set [21], above 10 µM. Further, half-maximal inhibition at Cytochrome P450 2C9 (IC50) required 4.1 µM. Moreover, the outcome in the data set on Mus musculus [2], with Mus musculus [3], with Mus musculus [4], in the data set with Mus musculus [6], with Mus musculus [15] and in the data set on Mus musculus [16] was Active. Also, the outcome in the data set with Mus musculus [17], with Mus musculus [18] and with Mus musculus [20] was Active. In addition, the results for the half-life in [5] and in [8] were 7.42 h and 4.18 h, respectively. For the same molecule, the Ratio IC50 in [7] was 4.27; in data set [11], above 2800; in [13], 290; in data set [22], above 2800. The MRT last in data set [10] was found to be 1.76 h. In [12], this molecule had an AUC(0-t) of 6520 ng·h/mL.

As a reminder, the IC50 is the concentration at which inhibition is half-maximal. A word on the MRT last: it is the average time that molecules of a dose stay in the body. By AUC(0-t) is commonly meant exposure summed from dosing to a finite time, without extrapolation to infinity. High values mean high exposure, low ones low exposure.
